pKi: −log10 of the molar value. Structures can show the parent of a compound that is named as a salt. Where two headings read alike, the source gives them in different places.
Target: human FLAP (Homo sapiens (Human), UniProt P20292)
Experiment: FLAP binding assay (HTRF format)
Outline: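 Read-out is the HTRF ratio. Each reported figure averages two assay plates on which samples were tested in duplicate.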

[1] = human FLAP wild type, HTRF format, average of two plates, duplicates
[2] = read-out: FLAP Binding wild type HTRF Ki

Sequence of human FLAP (P20292 whole entry): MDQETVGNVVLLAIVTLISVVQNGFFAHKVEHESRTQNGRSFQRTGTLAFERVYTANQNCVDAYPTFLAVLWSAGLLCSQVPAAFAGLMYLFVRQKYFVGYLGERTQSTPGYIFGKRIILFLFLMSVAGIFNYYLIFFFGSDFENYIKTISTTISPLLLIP

pKi (wild type FLAP, HTRF format) | SMILES | other results
6.24 | C[C@H](CO)Oc1ncccc1-c1ccc(-c2cnc(N)nc2)c(F)c1 [Example 658, (2I)-2-({3-[4-(2-Aminopyrimidin-5-yl)-3-fluorophenyl]pyridin-2-yl}oxy)propan-1-ol] | –
< 5.00 | CC(C)(C(N)=O)S(=O)(=O)c1ccccc1-c1ccc(-c2cnc(N)nc2)c(F)c1 [Example 733, 2-{[4′-(2-Aminopyrimidin-5-yl)-3′-fluorobiphenyl-2-yl]sulfonyl}-2-methylpropanamide] | –
– | Nc1cnc(-c2ccc(-c3ccccc3NS(N)(=O)=O)cc2F)cn1 [Example 33, N-[4′-(5-Aminopyrazin-2-yl)-3′-fluorobiphenyl-2-yl]sulfamide] | pKi [1]: 6.52
< 5.00 | Nc1cnc(-c2ccc(-c3ccccc3C(=O)O)cc2F)cn1 [Example 485, 4′-(5-Aminopyrazin-2-yl)-3′-fluorobiphenyl-2-carboxylic acid] | –
6.10 | Nc1cnc(-c2ccc(-c3ccccc3C(=O)NC3CCCCC3)cc2F)cn1 [Example 508, 4′-(5-Aminopyrazin-2-yl)-N-cyclohexyl-3′-fluorobiphenyl-2-carboxamide] | –
5.72 | Nc1cnc(-c2ccc(-c3ccccc3OC3CCNCC3)cc2F)cn1 [Example 630, 5-[3-Fluoro-2′-(piperidin-4-yloxy)biphenyl-4-yl]pyrazin-2-amine] | –
6.36 | Nc1ncc(-c2ccc(-c3ccccc3C(=O)N3CCOCC3)cc2F)cn1 [Example 499, 5-[3-Fluoro-2′-(morpholin-4-ylcarbonyl)biphenyl-4-yl]pyrimidin-2-amine] | –
< 5.00 | Nc1ncc(-c2ccc(-c3ccccc3C(=O)N3CCC[C@H](O)C3)cc2F)cn1 [Example 767, (3S)-1-{[4′-(2-Aminopyrimidin-5-yl)-3′-fluorobiphenyl-2-yl]carbonyl}piperidin-3-ol] | –
~5.85 | N#Cc1ccccc1-c1ccc(-c2cnc(N)cn2)c(F)c1 [Example 701, 4′-(5-Aminopyrazin-2-yl)-3′-fluorobiphenyl-2-carbonitrile] | –
~5.60 | CNS(=O)(=O)c1ccccc1-c1ccc(-c2ccc(N)nc2)c(F)c1 [Example 661, 4′-(6-Aminopyridin-3-yl)-3′-fluoro-N-methyl-[1,1′-biphenyl]-2-sulfonamide] | –
< 5.00 | C[C@@H](CO)NC(=O)c1ccccc1-c1ccc(-c2cnc(N)nc2)c(F)c1 [Example 517, 4′-(2-Aminopyrimidin-5-yl)-3′-fluoro-N-[(1S)-2-hydroxy-1-methylethyl]biphenyl-2-carboxamide] | –
– | Nc1ncc(-c2ccc(-c3cccnc3S(=O)(=O)C3CCNCC3)cc2F)cn1 [Example 827, 5-{2-Fluoro-4-[2-(piperidin-4-ylsulfonyl)pyridin-3-yl]phenyl}pyrimidin-2-amine formic acid salt] | pKi [2]: < 5.00
< 5.00 | Nc1ncc(-c2ccc(-c3ccccc3-c3cnc(N)nc3)cn2)cn1 [Example 855, 5-{5-[2-(2-Aminopyrimidin-5-yl)phenyl]pyridin-2-yl}pyrimidin-2-amine] | –
– | Nc1ncc(-c2ccc(-c3ccccc3NS(=O)(=O)N3CCOCC3)cc2F)cn1 [Example 310, N-[4′-(2-Aminopyrimidin-5-yl)-3′-fluorobiphenyl-2-yl]morpholine-4-sulfonamide] | pKi [1]: 6.31
< 5.00 | CC1CN(C(=O)c2ccccc2-c2ccc(-c3cnc(N)nc3)c(F)c2)CC(C)O1 (mixture of isomers) [Example 780, 5-{2′-[(2,6-Dimethylmorpholin-4-yl)carbonyl]-3-fluorobiphenyl-4-yl}pyrimidin-2-amine (Diastereoisomeric Mixture)] | –
– | Nc1ncc(-c2ccc(-c3ccccc3S(=O)(=O)C3CCS(=O)(=O)CC3)cc2F)cn1 [Example 316, 5-{2′-[(1,1-Dioxidotetrahydro-2H-thiopyran-4-yl)sulfonyl]-3-fluorobiphenyl-4-yl}pyrimidin-2-amine hydrochloride] | pKi [1]: 6.13
6.03 | Nc1cnc(-c2ccc(-c3ccccc3C(=O)N3CC(O)C3)cc2F)cn1 [Example 755, 1-{[4′-(5-Aminopyrazin-2-yl)-3′-fluorobiphenyl-2-yl]carbonyl}azetidin-3-ol] | –
< 5.00 | Nc1ncc(-c2ccc(-c3ccccc3C(=O)N3CCOC(CO)C3)cc2F)cn1 (racemic) [Example 799, racemic [2-[4-(2-Aminopyrimidin-5-yl)-3-fluoro-phenyl]phenyl]-[2-(hydroxymethyl)morpholin-4-yl]methanone] | –
5.86 | CC(CO)Oc1ncccc1-c1ccc(-c2cnc(N)nc2)c(F)c1 (stereo in doubt) [Example 656, (2R)-2-({3-[4-(2-Aminopyrimidin-5-yl)-3-fluorophenyl]pyridin-2-yl}oxy)propan-1-ol] | –
< 5.00 | Nc1cnc(-c2ccc(-c3ccccc3C(=O)N3CCNCC3)cc2F)cn1 [Example 506, 5-[3-Fluoro-2′-(piperazin-1-ylcarbonyl)biphenyl-4-yl]pyrazin-2-amine] | –

pKi (wild type FLAP, HTRF format) | SMILES | other results
< 5.00 | Nc1cnc(-c2ccc(-c3ccccc3C(=O)N3CC[C@H](O)C3)cc2F)cn1 [Example 771, (3S)-1-{[4′-(5-Aminopyrazin-2-yl)-3′-fluorobiphenyl-2-yl]carbonyl}pyrrolidin-3-ol] | –
– | Nc1ncc(-c2ccc(-c3ccccc3S(=O)(=O)c3ncncc3N)cc2F)cn1 [Example 337, 5-{2′-[(5-Aminopyrimidin-4-yl)sulfonyl]-3-fluorobiphenyl-4-yl}pyrimidin-2-amine hydrochloride] | pKi [2]: 5.60
< 5.00 | Nc1ncc(-c2ccc(-c3ccccc3C(=O)N3CC(O)C3)cc2F)cn1 [Example 791, [2-[4-(2-Aminopyrimidin-5-yl)-3-fluoro-phenyl]phenyl]-(3-hydroxyazetidin-1-yl)methanone] | –
6.25 | CC(C)(C#N)S(=O)(=O)c1ccccc1-c1ccc(-c2cnc(N)nc2)c(F)c1 [Example 732, 2-{[4′-(2-Aminopyrimidin-5-yl)-3′-fluorobiphenyl-2-yl]sulfonyl}-2-methylpropanenitrile] | –
< 5.00 | CC(C)(C)C(=O)Nc1ncccc1-c1ccc(-c2cnc(N)nc2)c(F)c1 [Example 800, N-{3-[4-(2-Aminopyrimidin-5-yl)-3-fluorophenyl]pyridin-2-yl}-2,2-dimethylpropanamide] | –
6.43 | CN(C)S(=O)(=O)c1ccccc1-c1ccc(-c2cnc(N)cn2)cc1 [Example 572, 4′-(5-Aminopyrazin-2-yl)-N,N-dimethylbiphenyl-2-sulfonamide] | –
< 5.00 | CC(C)(C)NS(=O)(=O)c1ccccc1-c1ccc(-c2ccc3[nH]c(=O)[nH]c(=O)c3c2)c(F)c1 [Example 596, N-tert-Butyl-4′-(2,4-dioxo-1,2,3,4-tetrahydroquinazolin-6-yl)-3′-fluorobiphenyl-2-sulfonamide] | –
< 5.00 | CC(=O)Nc1ccccc1-c1ccc(-c2cnc(N)cn2)c(F)c1 [Example 459, N-[4′-(5-Aminopyrazin-2-yl)-3′-fluorobiphenyl-2-yl]acetamide] | –
– | CN(C)S(=O)(=O)Nc1ccccc1-c1ccc(-c2cnc(N)nc2)c(F)c1 [Example 311, N′-[4′-(2-Aminopyrimidin-5-yl)-3′-fluorobiphenyl-2-yl]-N,N-dimethylsulfamide] | pKi [1]: 6.13
5.60 | Nc1ccnc(Oc2ccccc2-c2ccc(-c3cnc(N)nc3)nc2)n1 [Example 568, 5-(5-{2-[(4-Aminopyrimidin-2-yl)oxy]phenyl}pyridin-2-yl)pyrimidin-2-amine] | –
< 5.00 | Nc1ncc(-c2ccc(-c3ccccc3Oc3ncccn3)cn2)cn1 [Example 566, 5-{5-[2-(Pyrimidin-2-yloxy)phenyl]pyridin-2-yl}pyrimidin-2-amine] | –
– | CN(C)S(=O)(=O)c1ccccc1-c1ccc(-c2cnc(N)nc2)c(F)c1 [Example 299, 4′-(2-Aminopyrimidin-5-yl)-3′-fluoro-N,N-dimethylbiphenyl-2-sulfonamide trifluoroacetic acid salt] | pKi [1]: 6.92
< 5.00 | Nc1ncc(-c2ccc(-c3ccccc3S(=O)(=O)c3cnccn3)cc2F)cn1 [Example 719, 5-[3-Fluoro-2′-(pyrazin-2-ylsulfonyl)biphenyl-4-yl]pyrimidin-2-amine] | –
< 5.00 | CC(=O)N1CCN(C(=O)c2ccccc2-c2ccc(-c3cnc(N)cn3)c(F)c2)CC1 [Example 507, 5-{2′-[(4-Acetylpiperazin-1-yl)carbonyl]-3-fluorobiphenyl-4-yl}pyrazin-2-amine] | –
– | NC(=O)NC1CCN(S(=O)(=O)Cc2ccccc2-c2ccc(-c3cnc(N)cn3)c(F)c2)CC1 [Example 232, 1-[1-({[4′-(5-Aminopyrazin-2-yl)-3′-fluorobiphenyl-2-yl]methyl}sulfonyl)piperidin-4-yl]urea hydrochloride] | pKi [1]: 6.45
< 5.00 | NCC1(S(=O)(=O)c2ccccc2-c2ccc(-c3cnc(N)nc3)c(F)c2)CCCC1 [Example 740, 5-(2′-{[1-(Aminomethyl)cyclopentyl]sulfonyl}-3-fluorobiphenyl-4-yl)pyrimidin-2-amine] | –
< 5.00 | Nc1ncc(-c2ccc(-c3ccccc3C(=O)N3CCNC(=O)C3)cc2F)cn1 [Example 520, 4-{[4′-(2-Aminopyrimidin-5-yl)-3′-fluorobiphenyl-2-yl]carbonyl}piperazin-2-one] | –
~6.30 | Nc1cnc(-c2ccc(-c3ccccc3)c(F)c2F)cn1 [Example 833, 5-(2,3-Difluorobiphenyl-4-yl)pyrazin-2-amine] | –
– | CS(=O)(=O)c1ccccc1-c1ccc(-c2ncc(N)nc2C#N)c(F)c1 [Example 3, 6-Amino-3-[3-fluoro-2′-(methylsulfonyl)biphenyl-4-yl]pyrazine-2-carbonitrile] | pKi [1]: < 5.00

SMILES | pKi (wild type FLAP, HTRF format) | other results
Nc1ncc(-c2ccc(-c3ccccc3OCC(=O)O)cc2F)cn1 [Example 644, {[4′-(2-Aminopyrimidin-5-yl)-3′-fluorobiphenyl-2-yl]oxy}acetic acid] | < 5.00 | –
CC(C)(C)NS(=O)(=O)c1ccccc1-c1ccc(-c2cn3cc(C(N)=O)ccc3n2)c(F)c1 [Example 582, 2-[2′-(tert-Butylsulfamoyl)-3-fluorobiphenyl-4-yl]imidazo[1,2-a]pyridine-6-carboxamide] | < 5.00 | –
CC(C)(CN)S(=O)(=O)c1ccccc1-c1ccc(-c2cnc(N)nc2)c(F)c1 [Example 734, 5-{2′-[(2-Amino-1,1-dimethylethyl)sulfonyl]-3-fluorobiphenyl-4-yl}pyrimidin-2-amine] | < 5.00 | –
